EC50 and Emax data for 22 compounds are collected here from patent US20240336572A1, “SUBSTITUTED INDAZOLE PROPIONIC ACID DERIVATIVE COMPOUNDS AND USES THEREOF” (Pfizer Inc., priority 2023, published 2024).

One assay addresses T1, AMPK 111 (Homo sapiens, UniProt Q13131+Q9Y478).
T1 construct: open reading frames encoding the full-length α1, β1 and δ1 subunits of human AMPK; made in house; host or cells: E. coli BL21-CodonPlus (DE3)-RIPL, pET-14b
Kind of assay: Biochemical profiling of AMPK activators by AMPK111 (HTRF/TR-FRET assay, SAMS peptide, PP2A dephosphorylation protection). The settings on record: for EC50: phosphorylated AMPK 111 (α1β1δ1 as printed), 11 point dilution, duplicate, 4-parameter fit; for Emax: phosphorylated AMPK 111, maximal activation. On the procedure: (§1) The biochemical EC50 (half-maximal concentration required for full activation) of compounds for the activation of AMPK was evaluated by HTRF assay using LANCE Ultra ULight-Acetyl-CoA Carboxylase (SAMS) peptide (commercially available, Perkin Elmer catalog TRF0133-M).
Following a fifteen-minute room temperature incubation, 5 μL of 30 nM protein phosphatase PP2A (isolation detailed above) diluted in the assay buffer was added to the plate, to dephosphorylate pThr172 of AMPK. […] The reaction was terminated after 60 minutes incubation at room temperature, by the addition of 5 μL of stop and detection cocktail, which consisted of 1× Perkin Elmer Lance buffer (Perkin Elmer catalog number CR97-100), 40 mM EDTA (Thermo Fisher catalog number BP2482-100), and 2 nM Eu-anti-Acetyl CoA Carboxylase [pSer70] antibody (Perkin Elmer, TRF0208-M).

The target in another assay is T2, AMPK 221 (Homo sapiens, UniProt O43741+P54646).
T2 construct: open reading frames encoding the full-length α2, β2 and δ1 subunits of human AMPK; made in house; host or cells: E. coli BL21-CodonPlus (DE3)-RIPL, pET-14b
Description: Biochemical profiling of AMPK activators by AMPK221 (HTRF/TR-FRET assay, SAMS peptide, PP2A dephosphorylation protection). The settings on record: for EC50: phosphorylated AMPK 221 (α2β2δ1), 11 point dilution, duplicate, 4-parameter fit; for Emax: phosphorylated AMPK 221, maximal activation. The method, then:
as §1
The reaction was terminated after 60 minutes incubation at room temperature by the addition of 5 μL of stop and detection cocktail, which consisted of 1× Perkin Elmer Lance buffer (Perkin Elmer catalog number CR97-100), 40 mM EDTA (Thermo Fisher catalog number BP2482-100), and 2 nM Eu-anti-Acetyl CoA Carboxylase [pSer70] antibody (Perkin Elmer, TRF0208-M). Plates were spun at 1000 RPM, 10 seconds.
(Time-resolved FRET reads energy transfer from a long-lived donor to a nearby acceptor.)

T2 sequence (P54646 whole entry): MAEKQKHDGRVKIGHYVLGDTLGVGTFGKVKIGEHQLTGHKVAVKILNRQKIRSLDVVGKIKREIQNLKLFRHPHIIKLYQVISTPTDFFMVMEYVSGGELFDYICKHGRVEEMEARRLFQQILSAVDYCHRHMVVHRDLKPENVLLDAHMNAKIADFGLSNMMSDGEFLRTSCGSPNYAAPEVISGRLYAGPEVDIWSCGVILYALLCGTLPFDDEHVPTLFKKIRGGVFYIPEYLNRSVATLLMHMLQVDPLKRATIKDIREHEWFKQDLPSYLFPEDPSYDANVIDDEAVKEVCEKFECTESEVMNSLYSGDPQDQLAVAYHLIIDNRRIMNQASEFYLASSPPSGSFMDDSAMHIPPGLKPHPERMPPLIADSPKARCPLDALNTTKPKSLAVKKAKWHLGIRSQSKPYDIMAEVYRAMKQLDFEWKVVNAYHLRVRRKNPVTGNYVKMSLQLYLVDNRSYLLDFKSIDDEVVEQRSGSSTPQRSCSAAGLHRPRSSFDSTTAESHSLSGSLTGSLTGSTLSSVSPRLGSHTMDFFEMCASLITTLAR
T2 sequence (O43741 whole entry): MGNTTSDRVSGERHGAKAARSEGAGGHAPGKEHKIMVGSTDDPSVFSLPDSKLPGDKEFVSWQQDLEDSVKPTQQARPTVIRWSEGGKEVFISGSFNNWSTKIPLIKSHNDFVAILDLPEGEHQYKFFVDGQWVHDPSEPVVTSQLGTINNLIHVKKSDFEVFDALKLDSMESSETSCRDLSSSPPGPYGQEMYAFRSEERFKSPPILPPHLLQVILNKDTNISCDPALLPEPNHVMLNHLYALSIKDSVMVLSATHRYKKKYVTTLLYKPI
T2 sequence (P54619 whole entry partner): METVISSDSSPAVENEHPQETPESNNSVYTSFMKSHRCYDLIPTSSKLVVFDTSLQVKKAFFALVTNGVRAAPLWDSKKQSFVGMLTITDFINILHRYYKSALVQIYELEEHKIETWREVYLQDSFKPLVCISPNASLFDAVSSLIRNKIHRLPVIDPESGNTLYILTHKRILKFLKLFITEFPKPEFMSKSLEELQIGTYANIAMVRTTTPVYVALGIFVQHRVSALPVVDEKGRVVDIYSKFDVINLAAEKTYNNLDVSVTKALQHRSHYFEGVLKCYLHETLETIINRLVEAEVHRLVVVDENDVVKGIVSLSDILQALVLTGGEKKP
T1 sequence (Q13131 whole entry): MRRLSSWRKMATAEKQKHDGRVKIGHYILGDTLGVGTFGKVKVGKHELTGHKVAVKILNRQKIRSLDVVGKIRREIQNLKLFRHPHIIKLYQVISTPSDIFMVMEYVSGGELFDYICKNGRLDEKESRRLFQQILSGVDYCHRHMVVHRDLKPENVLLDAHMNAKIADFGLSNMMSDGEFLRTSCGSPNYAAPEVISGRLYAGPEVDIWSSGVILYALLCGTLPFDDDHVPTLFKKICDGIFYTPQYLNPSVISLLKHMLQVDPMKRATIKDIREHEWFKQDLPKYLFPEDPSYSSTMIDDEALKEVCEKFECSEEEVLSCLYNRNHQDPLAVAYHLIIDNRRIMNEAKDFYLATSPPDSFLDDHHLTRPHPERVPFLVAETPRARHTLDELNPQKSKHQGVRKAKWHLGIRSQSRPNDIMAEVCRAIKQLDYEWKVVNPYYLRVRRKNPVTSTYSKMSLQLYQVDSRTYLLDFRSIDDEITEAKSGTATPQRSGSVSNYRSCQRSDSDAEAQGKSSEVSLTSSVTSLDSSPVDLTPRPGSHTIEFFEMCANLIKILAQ
T1 sequence (Q9Y478 whole entry): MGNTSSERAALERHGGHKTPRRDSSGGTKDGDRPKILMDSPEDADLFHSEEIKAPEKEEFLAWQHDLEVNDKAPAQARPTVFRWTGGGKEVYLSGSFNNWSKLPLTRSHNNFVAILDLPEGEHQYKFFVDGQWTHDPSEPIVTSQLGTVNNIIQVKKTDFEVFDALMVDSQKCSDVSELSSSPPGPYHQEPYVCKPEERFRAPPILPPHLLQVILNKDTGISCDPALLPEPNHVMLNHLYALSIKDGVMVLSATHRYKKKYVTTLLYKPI
T1 sequence (P54619 whole entry partner): as the sequence (P54619 whole entry partner) above

In the case of `CS(=N)(=O)c1ccc(-c2ccc(-c3cc4c(CCC(=O)O)n[nH]c4cc3Cl)cc2)cc1` (stereo not shown) [Example 24, 3-(6-chloro-5-(4′-(S-methylsulfonimidoyl)-[1,1′-biphenyl]-4-yl)-1H-indazol-3-yl)propanoic acid], the EC50 (usually the concentration that produces a half-maximal response) at AMPK 111 turned out to be 19 nM; at AMPK 221, 106 nM. Moreover, the Emax (in general, the maximal effect, on the per cent scale that the assay sets) at AMPK 111 was found to be 86%; on AMPK 221, 48%.

Take `CCOc1cccc(-c2ccc(-c3cc4c(CCC(=O)O)n[nH]c4cc3Cl)cc2)c1O` [Example 25, 3-(6-chloro-5-(3′-ethoxy-2′-hydroxy-[1,1′-biphenyl]-4-yl)-1H-indazol-3-yl)propanoic acid]: at AMPK 111, it took 144 nM to reach a half-maximal effect (EC50) and the Emax turned out to be 71%. Moreover, on AMPK 221, the midpoint of the response, the EC50, lay at 107 nM and the Emax was found to be 61%.

As for `COc1ccc(F)c(-c2ccc(-c3cc4c(CCC(=O)O)n[nH]c4cc3Cl)cc2)c1O` [Example 26, 3-(6-chloro-5-(6′-fluoro-2′-hydroxy-3′-methoxy-[1,1′-biphenyl]-4-yl)-1H-indazol-3-yl)propanoic acid], on AMPK 111, a half-maximal effect (EC50) was put at 107 nM and the Emax was 77%. At AMPK 221, this compound registered an EC50 of 114 nM and a maximal response (Emax) of 66%.

In the case of `Cc1cncc(O)c1-c1ccc(-c2cc3c(CCC(=O)O)n[nH]c3cc2Cl)cc1` [Example 27, 3-(6-chloro-5-(4-(3-hydroxy-5-methylpyridin-4-yl)phenyl)-1H-indazol-3-yl)propanoic acid], at AMPK 111, the 50% effective concentration (EC50) turned out to be 7 nM and the maximal response (Emax) was found to be 87%. On AMPK 221, this compound returned a 50% effective concentration (EC50) of 125 nM and an Emax of 62%.

Consider `COc1c(Cl)ccc(-c2ccc(-c3cc4c(CCC(=O)O)n[nH]c4cc3Cl)cc2)c1O` [Example 28, 3-(6-chloro-5-(4′-chloro-2′-hydroxy-3′-methoxy-[1,1′-biphenyl]-4-yl)-1H-indazol-3-yl)propanoic acid], for which, at AMPK 111, the response was half-maximal at 277 nM (EC50) and the maximum response (Emax) was 73%. Moreover, at AMPK 221, the concentration giving a half-maximal response (EC50) came to 136 nM and the Emax was 63%.

At AMPK 111, `CN(C)C(=O)c1ccc(-c2ccc(-c3cc4c(CCC(=O)O)n[nH]c4cc3Cl)cc2)cc1` [Example 29, 3-(6-chloro-5-(4′-(dimethylcarbamoyl)-[1,1′-biphenyl]-4-yl)-1H-indazol-3-yl)propanoic acid] yielded an EC50 of 46 nM and an Emax of 72%. Moreover, at AMPK 221, the EC50 came to 162 nM and the Emax was determined as 63%.

On AMPK 111, `NC(=O)Cc1ccc(-c2ccc(-c3cc4c(CCC(=O)O)n[nH]c4cc3Cl)cc2)cc1` [Example 30, 3-(5-(4′-(2-amino-2-oxoethyl)-[1,1′-biphenyl]-4-yl)-6-chloro-1H-indazol-3-yl)propanoic acid] returned an EC50 of 36 nM and an Emax of 80%. On AMPK 221, a half-maximal response (EC50) required 173 nM and the Emax turned out to be 65%.

For `COC(=O)c1ccc(-c2ccc(-c3cc4c(CCC(=O)O)n[nH]c4cc3Cl)cc2)c(O)c1` [Example 31, 3-(6-Chloro-5-(2′-hydroxy-4′-(methoxycarbonyl)-[1,1′-biphenyl]-4-yl)-1H-indazol-3-yl)propanoic acid], at AMPK 111, the 50% effective concentration (EC50) came to 57 nM and the maximal effect (Emax) is 84%. On AMPK 221, the concentration giving a half-maximal response (EC50) amounted to 190 nM and the Emax was determined as 61%.

For `CS(=O)(=O)Nc1ccc(-c2ccc(-c3cc4c(CCC(=O)O)n[nH]c4cc3Cl)cc2)cc1` [Example 32, 3-(6-chloro-5-(4′-(methylsulfonamido)-[1,1′-biphenyl]-4-yl)-1H-indazol-3-yl)propanoic acid], the EC50 amounted to 136 nM on AMPK 111 and 198 nM at AMPK 221. Besides, the values for the Emax at AMPK 111 and at AMPK 221 were 71% and 41%, respectively.

`O=C(O)CCc1n[nH]c2cc(F)c(-c3ccc(-c4ccccc4O)cc3)cc12` [Example 33, 3-(6-fluoro-5-(2′-hydroxy-[1,1′-biphenyl]-4-yl)-1H-indazol-3-yl)propanoic acid]: at AMPK 111, the EC50 came to 301 nM and the Emax stood at 57%. Besides, on AMPK 221, the EC50 was determined as 196 nM and the Emax worked out at 57%.

On to `Cc1ccc(-c2ccc(-c3cc4c(CCC(=O)O)n[nH]c4cc3Cl)cc2)c(O)c1` [Example 34, 3-(6-chloro-5-(2′-hydroxy-4′-methyl-[1,1′-biphenyl]-4-yl)-1H-indazol-3-yl)propanoic acid], for which the EC50 at AMPK 111 was 228 nM; on AMPK 221, 197 nM. The Emax on AMPK 111 turned out to be 68%; at AMPK 221, 50%.

With `N#Cc1cc2[nH]nc(CCC(=O)O)c2cc1-c1ccc(-c2ccccc2O)cc1` [Example 35, 3-(6-cyano-5-(2′-hydroxy-[1,1′-biphenyl]-4-yl)-1H-indazol-3-yl)propanoic acid], at AMPK 111, the midpoint of the response, the EC50, lay at 137 nM and the Emax came to 67%. Moreover, on AMPK 221, a half-maximal effect (EC50) was put at 198 nM and the Emax was determined as 47%.

Turning to `O=C(O)CCc1n[nH]c2cc(Cl)c(-c3ccc(-c4ccc(C(=O)O)cc4O)cc3)cc12` [Example 36, 4′-(3-(2-carboxyethyl)-6-chloro-1H-indazol-5-yl)-2-hydroxy-[1,1′-biphenyl]-4-carboxylic acid], the half-maximal effective concentration (EC50) on AMPK 111 was found to be 45 nM; at AMPK 221, 200 nM. Besides, the maximum response (Emax) at AMPK 111 was 68%; at AMPK 221, 49%.

Consider `CC(C)Oc1cccc(-c2ccc(-c3cc4c(CCC(=O)O)n[nH]c4cc3Cl)cc2)c1O` [Example 37, 3-(6-chloro-5-(2′-hydroxy-3′-isopropoxy-[1,1′-biphenyl]-4-yl)-1H-indazol-3-yl)propanoic acid], for which, on AMPK 111, a half-maximal effect (EC50) was put at 464 nM and the Emax was 70%. On AMPK 221, this compound came in with a concentration for a half-maximal effect (EC50) of 205 nM and a maximal response (Emax) of 52%.

In the case of `O=C(O)CCc1n[nH]c2cc(Cl)c(-c3ccc(-c4ccc(OCCN5CCOCC5)cc4)cc3)cc12` [Example 38, 3-(6-chloro-5-(4′-(2-morpholinoethoxy)-[1,1′-biphenyl]-4-yl)-1H-indazol-3-yl)propanoic acid], at AMPK 111, the concentration giving a half-maximal response (EC50) turned out to be 95 nM and the Emax came to 67%. At AMPK 221, this compound returned an EC50 of 209 nM and a maximal response (Emax) of 64%.

With `CC(=O)N(C)c1ccc(-c2ccc(-c3cc4c(CCC(=O)O)n[nH]c4cc3Cl)cc2)cc1` [Example 39, 3-(6-chloro-5-(4′-(N-methylacetamido)-[1,1′-biphenyl]-4-yl)-1H-indazol-3-yl)propanoic acid], the EC50 was determined as 109 nM at AMPK 111 and 218 nM at AMPK 221. For the same compound, the maximum response (Emax) worked out at 69% on AMPK 111 and 59% at AMPK 221.

As to `NS(=O)(=O)c1ccc(-c2ccc(-c3cc4c(CCC(=O)O)n[nH]c4cc3Cl)cc2)cc1` [Example 40, 3-(6-chloro-5-(4′-sulfamoyl-[1,1′-biphenyl]-4-yl)-1H-indazol-3-yl)propanoic acid], the EC50 was determined as 92 nM at AMPK 111 and 306 nM on AMPK 221. The Emax on AMPK 111 stood at 85%; on AMPK 221 it was 68%.

In the case of `CC(=O)NCc1ccc(-c2ccc(-c3cc4c(CCC(=O)O)n[nH]c4cc3Cl)cc2)cc1` [Example 41, 3-(5-(4′-(acetamidomethyl)-[1,1′-biphenyl]-4-yl)-6-chloro-1H-indazol-3-yl)propanoic acid], on AMPK 111, the EC50 was 70 nM and the maximal response (Emax) was 66%. At AMPK 221, the EC50 was found to be 235 nM and the Emax came to 65%.

For `COc1cc(F)cc(-c2ccc(-c3cc4c(CCC(=O)O)n[nH]c4cc3Cl)cc2)c1O` [Example 42, 3-(6-chloro-5-(5′-fluoro-2′-hydroxy-3′-methoxy-[1,1′-biphenyl]-4-yl)-1H-indazol-3-yl)propanoic acid], the half-maximal effective concentration (EC50) at AMPK 111 was determined as 291 nM; on AMPK 221, 244 nM. Further, the maximal response (Emax) on AMPK 111 turned out to be 68%; at AMPK 221 it was 64%.

On AMPK 111, `O=C(O)CCCc1n[nH]c2cc(Cl)c(-c3ccc(-c4ccccc4O)cc3)cc12` [Example 43, 4-(6-chloro-5-(2′-hydroxy-[1,1′-biphenyl]-4-yl)-1H-indazol-3-yl)butanoic acid] registered a half-maximal effective concentration (EC50) of 51 nM and an Emax of 80%. On AMPK 221, this compound gave an EC50 of 248 nM and an Emax of 62%.

At AMPK 111, `CS(=O)(=O)c1ccc(-c2ccc(-c3cc4c(CCC(=O)O)n[nH]c4cc3Cl)cc2)cc1` [Example 44, 3-(6-chloro-5-(4′-(methylsulfonyl)-[1,1′-biphenyl]-4-yl)-1H-indazol-3-yl)propanoic acid] came in with an EC50 of 85 nM and an Emax of 79%. For the same compound, at AMPK 221, the concentration giving a half-maximal response (EC50) came out at 204 nM and the Emax came to 52%.

For `O=C(O)CCc1n[nH]c2cc(Cl)c(-c3ccc(-c4cccc(Cl)c4O)cc3)cc12` [Example 45, 3-(6-chloro-5-(3′-chloro-2′-hydroxy-[1,1′-biphenyl]-4-yl)-1H-indazol-3-yl)propanoic acid], at AMPK 111, a half-maximal effect (EC50) was put at 123 nM and the Emax is 82%. At AMPK 221, the half-maximal effective concentration (EC50) turned out to be 263 nM and the Emax is 66%.
